Measurements as given in patent US11065304B2, “Peptide pharmaceuticals for insulin resistance” (MEDERIS DIABETES, LLC, priority 2012, dated 2021).

What was measured:
GLP-1 R [1] = target: T1, GLP-1 R (Homo sapiens, UniProt P43220); assay: DiscoveRx LeadHunter cellular assay, cAMP stimulation, GLP-1 receptor; type: cell-based
Method: (§1) § means superagonist A further series of cellular assays were carried out using standard cellular assays (DiscoveRx, LeadHunter assays) using readout of cAMP stimulation or arrestin activation. Compounds were weighed precisely in an amount of approximately 1 mg and shipped to DiscoveRx for dilution and assay.

GLP-1 R [2] = target: T1, GLP-1 R; assay: DiscoveRx LeadHunter cellular assay, arrestin activation, GLP-1 receptor; type: cell-based
Method: as §1

glucagon R = target: T2, glucagon R (Homo sapiens, UniProt P47871); assay: DiscoveRx LeadHunter cellular assay, cAMP stimulation, glucagon receptor; type: cell-based
T2 construct: host or cells: CHO cells
Method: as §1

db/db mice = assay: In vivo assay in db/db mice (blood glucose, body weight, food consumption); details: for db/db mice - Mean Blood Glucose, 10 hr: 10 hr after first dose; for db/db mice - Mean Blood Glucose, 24 hr: 24 hr after first dose; for db/db mice - Mean Blood Glucose, 48 hr: 48 hr after first dose
Method: The 60 female db/db B6BKS (D) Leprdb/J (strain 000697) mice for this study were approximately 8 to 9 weeks old at arrival (Jackson Laboratory, Bar Harbor, Me.). […] One group of 8 female mice served as the vehicle control and received the vehicle, 0.2% BSA in saline, pH 7.4. One additional group of 8 female mice received the positive control article, liraglutide, at a dose level of 50 nmoles/kg. The test articles, vehicle, and positive control article were administered on Day 1, at approximately 0, 7, and 24 hours during the study via subcutaneous injection at a dose volume of 6 mL/kg.
Clinical observations were conducted at receipt, prior to randomization, and daily from Days 1 to 5. Body weights were measured and recorded at receipt, prior to randomization, and daily from Days 1 to 5. Food consumption was measured and recorded daily from Days 1 to 5. Blood samples for glucose analysis were collected pretest (Day −3) and at 0, 1, 2, 4, 8, 10, 24, 48, 72, and 96 hours following the first dose on Day 1. At study termination all animals were euthanized and the carcasses were discarded without further evaluation.

T1 sequence (P43220 24-463): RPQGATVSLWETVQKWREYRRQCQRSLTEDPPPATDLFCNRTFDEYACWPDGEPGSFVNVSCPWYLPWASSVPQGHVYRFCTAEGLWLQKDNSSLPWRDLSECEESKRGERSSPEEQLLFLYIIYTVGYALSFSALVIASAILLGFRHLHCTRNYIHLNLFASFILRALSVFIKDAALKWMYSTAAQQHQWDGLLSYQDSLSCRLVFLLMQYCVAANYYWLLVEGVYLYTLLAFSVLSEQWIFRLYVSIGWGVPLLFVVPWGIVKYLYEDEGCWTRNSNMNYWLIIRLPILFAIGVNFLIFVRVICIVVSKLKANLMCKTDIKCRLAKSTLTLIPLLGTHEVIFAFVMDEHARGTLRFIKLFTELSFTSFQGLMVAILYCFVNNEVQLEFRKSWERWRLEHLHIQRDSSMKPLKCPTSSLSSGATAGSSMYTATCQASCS
T2 sequence (P47871 26-477): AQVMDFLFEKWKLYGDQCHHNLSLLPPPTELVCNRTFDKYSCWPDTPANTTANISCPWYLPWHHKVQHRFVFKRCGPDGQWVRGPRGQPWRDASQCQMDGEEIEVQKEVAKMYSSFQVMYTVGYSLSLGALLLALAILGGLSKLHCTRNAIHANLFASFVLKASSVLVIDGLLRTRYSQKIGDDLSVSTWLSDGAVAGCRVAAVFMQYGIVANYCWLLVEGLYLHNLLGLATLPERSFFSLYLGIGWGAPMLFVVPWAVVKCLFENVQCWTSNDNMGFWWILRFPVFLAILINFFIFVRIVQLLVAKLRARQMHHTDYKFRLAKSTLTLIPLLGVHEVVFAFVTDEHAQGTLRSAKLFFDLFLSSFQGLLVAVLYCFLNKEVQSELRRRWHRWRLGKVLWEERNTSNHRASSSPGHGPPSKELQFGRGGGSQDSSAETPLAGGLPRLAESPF

SMILES	EC50 (GLP-1 R [1]) [nM]	EC50 (GLP-1 R [2]) [nM]	EC50 (glucagon R) [nM]	db/db mice - Mean Blood Glucose, 0 hr (db/db mice; 250 nmole/kg s.c.) [mg/dL]	db/db mice - Mean Blood Glucose, 10 hr (db/db mice; 250 nmole/kg s.c.) [mg/dL]	db/db mice - Mean Blood Glucose, 24 hr (db/db mice; 250 nmole/kg s.c.) [mg/dL]	db/db mice - Mean Blood Glucose, 48 hr (db/db mice; 250 nmole/kg s.c.) [mg/dL]	db/db mice - Mean Blood Glucose, 0 hr (db/db mice; 300 nmole/kg s.c.) [mg/dL]	db/db mice - Mean Blood Glucose, 10 hr (db/db mice; 300 nmole/kg s.c.) [mg/dL]	db/db mice - Mean Blood Glucose, 24 hr (db/db mice; 300 nmole/kg s.c.) [mg/dL]	db/db mice - Mean Blood Glucose, 48 hr (db/db mice; 300 nmole/kg s.c.) [mg/dL]	glucose levels versus vehicle (db/db mice; db/db mice, 10 and 24 hours, high dose (300 nmoles/kg))	food consumption versus Liraglutide (db/db mice; db/db mice, Day 1, high dose (300 nmoles/kg))	body weight changes against vehicle (db/db mice; db/db mice, Days 2 and 3, liraglutide 50 nmoles/kg, test articles high dose (300 nmoles/kg))
CCCCCCCCCCCCO[C@@H]1O[C@H](C(=O)NCCCC[C@H](NC(=O)[C@@H](NC(=O)[C@H](Cc2ccccc2)NC(=O)[C@H](CCC(=O)O)NC(=O)[C@@H]2CCCCNC(=O)CC[C@H](NC(=O)[C@H](CC(=O)O)NC(=O)[C@H](CC(C)C)NC(=O)[C@H](Cc3ccc(O)cc3)NC(=O)[C@H](CCCCN)NC(=O)[C@H](CO)NC(=O)[C@H](Cc3ccc(O)cc3)NC(=O)[C@H](CC(=O)O)NC(=O)[C@H](CO)NC(=O)[C@@H](NC(=O)[C@H](Cc3ccccc3)NC(=O)[C@@H](NC(=O)CNC(=O)[C@H](CCC(N)=O)NC(=O)C(C)(C)NC(=O)[C@@H](N)Cc3c[nH]cn3)[C@@H](C)O)[C@@H](C)O)C(=O)N[C@@H](CCC(N)=O)C(=O)N[C@@H](C)C(=O)N[C@@H](C)C(=O)N2)[C@@H](C)CC)C(=O)N[C@@H](Cc2c[nH]c3ccccc23)C(=O)N[C@@H](CC(C)C)C(=O)N[C@@H](CC(C)C)C(=O)N[C@@H](CCC(N)=O)C(=O)N[C@H](C(N)=O)[C@@H](C)O)[C@@H](O)[C@H](O)[C@H]1O [EU-A993, His1-Aib2-Gln3-Gly4-Thr5-Phe6-Thr7-Ser8-Asp9-Tyr10-Ser11-Lys12-Tyr13-Leu14-Asp15-Glu*16-Gln17 Ala18-Ala19-Lys*20-Glu21-Phe22-Ile23-Lys(N-omega(1-dodecylbeta-D-glucuronyl))24-Trp25-Leu26-Leu27-Gln28-Thr29-NH2]	< 0.05	12.3	< 0.05	503	305	324	426	–	–	–	–	–	–	–
CCCCCCCCCCCCCCO[C@@H]1O[C@H](C(=O)NCCCC[C@H](NC(=O)[C@@H](NC(=O)[C@H](Cc2ccccc2)NC(=O)[C@H](CCC(=O)O)NC(=O)[C@@H]2CCCCNC(=O)CC[C@H](NC(=O)[C@H](CC(=O)O)NC(=O)[C@H](CC(C)C)NC(=O)[C@H](Cc3ccc(O)cc3)NC(=O)[C@H](CCCCN)NC(=O)[C@H](CO)NC(=O)[C@H](Cc3ccc(O)cc3)NC(=O)[C@H](CC(=O)O)NC(=O)[C@H](CO)NC(=O)[C@@H](NC(=O)[C@H](Cc3ccccc3)NC(=O)[C@@H](NC(=O)CNC(=O)[C@H](CCC(N)=O)NC(=O)C(C)(C)NC(=O)[C@@H](N)Cc3c[nH]cn3)[C@@H](C)O)[C@@H](C)O)C(=O)N[C@@H](CCC(N)=O)C(=O)N[C@@H](C)C(=O)N[C@@H](C)C(=O)N2)[C@@H](C)CC)C(=O)N[C@@H](Cc2c[nH]c3ccccc23)C(=O)N[C@@H](CC(C)C)C(=O)N[C@@H](CC(C)C)C(=O)N[C@@H](CCC(N)=O)C(=O)N[C@H](C(N)=O)[C@@H](C)O)[C@@H](O)[C@H](O)[C@H]1O [EU-A994, His1-Aib2-Gln3-Gly4-Thr5-Phe6-Thr7-Ser8-Asp9-Tyr10-Ser11-Lys12-Tyr13-Leu14-Asp15-Glu*16-Gln17 Ala18-Ala19-Lys*20-Glu21-Phe22-Ile23-Lys(N-omega(1-tetradecylbeta-D-glucuronyl))24-Trp25-Leu26-Leu27-Gln28-Thr29-NH2]	0.05	10.2	< 0.05	–	–	–	–	554	242	209	385	significantly different from vehicle	significantly different from Liraglutide	Significant body weight changes
